Entries after “also recorded” stand apart in the source; their conditions may differ.
Legend:
[1] = molecular target: T1, binding of full-length ADRB2 to the central domain of GASP-1 (Homo sapiens, UniProt P07550); assay: SPR competition, ADRB2 / central domain of GASP-1; details: 1.1 µM ADRB2, GASP peptide 250 µM, control peptide up to 250 µM
T1 construct: Both ADRB2 and CNR2 full-length receptors were produced in P. pastoris and purified as previously described; implied only by the HisTrap purification; made in house; host or cells: ADRB2: Pichia pastoris; GST-GASP-1(380-1073): E. coli BL21
Description: (§1) The human ADRB2 and CNR2 receptors were produced using the P. pastoris expression system as previously described, [16]. After methanol-induced receptor expression, cells were washed with PBS pH 7.0 and resuspended in ice-cold buffer A (50 mM Tris-HCl pH 7.4, 500 mM NaCl, 10% glycerol, 5 mM EDTA, 1 mM PMSF, 2 mM DDT). Cells were then lysed with two cycles of 20 s shaking and 20 s cooling on ice using 0.5 mm glass beads in a FastPrep 24 device. Unbroken cells and cell debris were removed by centrifugation (3000 g, 5 min, 4°C) and the membrane fraction from the supernatant was pelleted by ultracentrifugation (100,000 g, 45 min, 4°C). Membranes were resuspended in buffer B (50 mM Tris-HCl pH 7.4, 500 mM NaCl, 10% glycerol, 1 mM PMSF, 2 mM DTT) using a Dounce homogenizer, and then successively washed with urea (buffer B with 4 M urea) and NaOH (buffer B with 10 mM NaOH), and ultracentrifuged (100,000 g, 45 min, 4°C). Finally membranes were resuspended in buffer B and quantified with the bicinchoninic acid (BCA) method (Pierce). […]
(§2) The binding curves were double referenced by (i) subtraction of the signal from the GST captured flow cell from the signal of the flow cell with captured central domain of GASP-1 and (ii) subtraction of the appropriate blank injection from the receptor injections with or without peptide. […] Endpoint responses were read 20 s after injection end. […]

[2] = molecular target: T2, binding of full-length CNR2 to the central domain of GASP-1 (Homo sapiens, UniProt P34972); assay: SPR competition, CNR2 / central domain of GASP-1; details: 0.30 µM CNR2, GASP peptide 250 µM, control peptide up to 250 µM
T2 construct: Both ADRB2 and CNR2 full-length receptors were produced in P. pastoris and purified as previously described; implied only by the HisTrap purification; made in house; host or cells: CNR2: Pichia pastoris; GST-GASP-1(380-1073): E. coli BL21
T2 sequence (P34972 whole entry, the tested form may be a part): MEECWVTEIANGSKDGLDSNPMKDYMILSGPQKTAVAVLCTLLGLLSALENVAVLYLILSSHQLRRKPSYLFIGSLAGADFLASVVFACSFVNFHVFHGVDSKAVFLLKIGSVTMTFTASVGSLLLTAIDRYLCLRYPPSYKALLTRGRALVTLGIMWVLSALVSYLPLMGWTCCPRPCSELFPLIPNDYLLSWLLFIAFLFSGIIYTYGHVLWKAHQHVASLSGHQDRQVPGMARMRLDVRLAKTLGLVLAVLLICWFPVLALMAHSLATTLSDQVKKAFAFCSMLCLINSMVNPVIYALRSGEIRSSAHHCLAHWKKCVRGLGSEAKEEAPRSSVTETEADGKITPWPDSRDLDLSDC
Description: as §1, §2

[3] = system: interaction between GASP-2 and GST-fused ADRB1 C-tail; assay: GST-pull down competition, GASP-2 / ADRB1 C-tail; assay type: binding
Description: (§3) GST-fusion proteins were immobilized on glutathione-coupled Sepharose beads (GE Healthcare) for 1 h at 4°C and incubated with [^35S]-labelled in vitro translated GASP proteins or their truncated or mutated forms in ice-cold binding buffer containing: 20 mM Tris-HCl pH 7.4, 150 mM NaCl, 1 mM EDTA, 1 mM DTT, 10% glycerol and 1% Triton X-100. The mixture was incubated for 1 h at 4°C with gentle rocking. The beads were washed five times with the same ice-cold buffer, resuspended in 30 µl SDS-PAGE sample buffer, incubated 10 min at 65°C, and pelleted for 60 s at 3000 g. The supernatants were then analyzed by SDS-PAGE, the gels were stained with Coomassie blue to visualize GST-fusion proteins, dried and analyzed using a Phosphor-imager (Personal Molecular Imager FX, Biorad) to visualize [^35S]-labelled GASPs. Quantification was performed with the Quantity One software (Biorad). GST-pull down quantification data were analyzed using GraphPad Prism 4.03 (GraphPad Software). Quantifications presented are means of at least three independent experiments.
(§4) GASP peptide or its corresponding scrambled version was incubated with GST-fused proteins and [^35S]-labelled GASPs and the binding was analyzed as described for the GST-pull down assay. […]

[4] = system: interaction between GASP-1 and GST-fused ADRB1 C-tail; assay: GST-pull down competition, GASP-1 / ADRB1 C-tail; assay type: binding; details: 150 µM peptide
Description: as §3, §4

[5] = system: interaction between GASP-7 and GST-fused ADRB1 C-tail; assay: GST-pull down competition, GASP-7 / ADRB1 C-tail; assay type: binding; details: 150 µM peptide
Description: as §3, §4

RVKQEPRFEEEVIIGAAAAAEKEA [control peptide, control peptide where the conserved SWFW motif was changed to AAAA]
effect on binding of ADRB2 to the central domain of GASP-1 [1]: only had a minor effect on the interaction | effect on binding of CNR2 to the central domain of GASP-1 [2]: only had a minor effect on the interaction

AVEWIQEVFWEKRKPEEFGIERAS [scrambled peptide, scrambled version of GASP peptide]
effect on the interaction between GASP-2 and ADRB1 C-tail ([3]; 150 µM peptide): did not | effect on the interaction between GASP-2 and ADRB1 C-tail ([3]; dose-effect experiment, peptide 1 to 250 µM (scrambled: highest dose)): did not affect this interaction; also recorded: no significant effect | effect on the interaction between GASP-1 and ADRB1 C-tail [4]: did not | effect on the interaction between GASP-7 and ADRB1 C-tail [5]: did not

— PMC3575409, “Identification of a Novel Protein-Protein Interaction Motif Mediating Interaction of GPCR-Associated Sorting Proteins with G Protein-Coupled Receptors” (PLoS ONE, 2013)
